Reference: patent US12274680B2, “Treatment of benign prostatic hypertrophy with capsinoids” (priority 2022, dated 2025)

Columns and labels:
BPH = details: longer term studies; cited from earlier work
[1] = test system: bladder outlet obstruction (BOO) due to benign prostatic hypertrophy (BPH); assay: Case observation of one patient with BOO due to BPH (self-catheterization frequency, urine flow, PSA, prostate size); type: in vivo
Description: A patient suffering from BOO due to BPH was experiencing increasing symptoms of BOO from 2018 to 2022 in addition to increasing levels of prostate specific antigen (PSA). This patient preferred the occasional self-catheterization to surgical treatment of the BPH. From 2018 to 2021 the self-catheterization frequency associated with 8 mg of silodosin (an alpha-1 antagonist/blocker) orally daily was about once every 6 months. […] By January 2022, the self-catheterization was weekly. The patient commented that most of the times self-catheterization was necessary, followed a decreased intake of spicy foods, which were an almost daily ingestion for this patient. The patient was instructed to ingest 40,000 SHU (Scoville Heat Units) daily in the form of a cayenne nutraceutical capsule obtained over the counter (OTC) at a pharmacy. The cayenne capsule is a powder of ground chili pepper with a claimed total capsinoid activity of 40,000 SHU resulting from the mixture of capsinoid chemicals in the pepper. […] These clinical findings are consistent with the dramatic improvement in BOO following treatment with oral capsinoids.

Row | SMILES | urinary flow rates and subjective symptom scores (BPH) | adverse event ([1]; silodosin 8 mg orally daily, led to dose decrease to 4 mg) | self-catheterization frequency ([1]; silodosin dose decreased to 4 mg, by January 2022)
1 | COc1cc2nc(N3CCN(C(=O)C4COc5ccccc5O4)CC3)nc(N)c2cc1OC (stereo not drawn) [doxazosin] | significant improvements | – | –
2 | O=C(NC1CCN(CCc2c[nH]c3ccccc23)CC1)c1ccccc1 [indoramin] | significant improvements | – | –
3 | COc1cc2nc(N3CCN(C(=O)c4ccco4)CC3)nc(N)c2cc1OC [prazosin] | significant improvements | – | –
4 | C[C@H](Cc1cc2c(c(C(N)=O)c1)N(CCCO)CC2)NCCOc1ccccc1OCC(F)(F)F [silodosin] | – | severe cardiovascular adverse event | weekly
5 | COc1cc2nc(N3CCN(C(=O)C4CCCO4)CC3)nc(N)c2cc1OC (stereo not drawn) [terazosin] | significant improvements | – | –
